For 33 compounds, melting point results are on record in a melting point compilation (Tetko et al.; mined from patent text by program, amines drawn as free bases though some values may be those of a salt).

SMILES strings stand for the structures.

Usually melting point stands for the temperature of the solid-liquid transition. In turn, `C#CCN(C)c1c(-c2c(F)cc(F)cc2F)c(OC)nc2ncnn12` yielded a melting point of 119 °C.
Take `O=[N+]([O-])c1ccc(OCc2ccc3ccccc3n2)cc1`: the melting point lay within 142 to 143 °C.
The result for `O=S(=O)(CCO)C(F)(F)C(O)(Cn1cncn1)c1ccc(F)cc1F` (stereo not drawn) reads 113 to 115 °C; that for `CCCCCCCCC1C=CC(/C=C/c2ccc(C(=O)O)o2)=C2N=C3C(=C21)CC(C)(C)CC3(C)C` (stereo not drawn), 156 to 158 °C.
As for `COc1ccc(N)cc1Oc1ncc(Cl)cc1Cl`, the melting point is 95 to 105 °C.
`O=C1COCC2CCCN12` (stereo not drawn) came in with a melting point of 63.5 to 66 °C.
With `O=[N+]([O-])c1ccc2c(c1)OC(CO)CO2` (stereo not drawn), the melting point lay within 132 to 135 °C.
As to `O=[N+]([O-])c1cccc(-c2cccc([N+](=O)[O-])n2)n1`, the melting point was 206 to 207 °C.
`Cc1ccc(N2C(=O)C(O)=C(C(=O)c3ccc(C(C)C)cc3)C2c2ccc(N(C)C)cc2)nn1` (stereo not drawn) had a melting point of 283 to 286 °C.
For the compound `CCOC(=O)C1=C(C)NC(=S)N(C(=O)OCC)C1c1ccccc1C` (stereo not drawn), the melting point lay in the range of 112 to 114 °C.
The compound `CCOC(=O)c1c(C(C)(C)O)nc(CC)n1Cc1ccc(-c2ccccc2-c2nnnn2C(c2ccccc2)(c2ccccc2)c2ccccc2)cc1` displayed a melting point of 150 to 152 °C.
The result for `COc1ccc(C(=O)CCC(=O)O)c2c1OC(C)(C)C2` reads 125 to 126 °C.
As for `CCN1C(=O)C(C(=O)Nc2ccc(F)cc2F)c2cc(C(C)=O)ccc21` (stereo not drawn), the melting point fell in the range of 160 to 161 °C.
For the compound `CCOC(=O)CC(c1ccccc1)C(C#N)c1ccccc1` (stereo not drawn), the melting point was 60.5 to 63 °C.
Turning to `CC(=O)c1cc2c(s1)C(NC(=O)c1ccc([N+](=O)[O-])cc1)C(O)C(C)(C)O2` (stereo not drawn), the melting point was in the range of 223 to 225 °C.
Turning to `ON=C1CCC2(CC1)Cc1ccccc1C2`, the melting point is 120 to 122 °C.
For `CCOC(=O)c1c[nH]c2cc(-c3cc(C)nc(C)c3)c(F)cc2c1=O`, the melting point is above 300 °C.
In turn, `CCCCCc1ccc(-c2ccc(-c3cc(F)c(C(F)(F)Oc4cc(F)c(C(F)(F)F)c(F)c4)c(F)c3)c(F)c2)cc1` yielded a melting point of 96 °C.
In turn, `C=C(COC)c1ccc(NC(=O)N(C)C)cc1` came in with a melting point of 96 to 97 °C.
The compound `COc1ccc(-n2nc(Cl)cc2-c2ccc(OCCNS(C)(=O)=O)cc2)cc1` returned a melting point of 117 to 119 °C.
`CC(C)(C)OC(=O)N1CCC(COc2ccc(C=O)cc2)CC1` had a melting point of 116 to 117 °C.
For the compound `CC(=O)Nc1nc(/C=C\c2ccc([N+](=O)[O-])cc2)cs1`, the melting point was in the range of 155 to 157 °C.
Regarding `CC(=O)SC[C@H]1CCCCCC[C@H](C(=O)N2C[C@H](O)C[C@H]2C(=O)OCc2ccccc2)NC1=O`, the melting point turned out to be 145 °C.
To `O=[N+]([O-])c1ccc(C2OCc3ccc(CCl)cc3CO2)cc1` (stereo not drawn) belongs 138 to 140 °C.
Take `CCOC(=O)CCC1(NC(=O)c2ccc(Cl)c(Cl)c2)C(=O)N(CC(=O)O)c2ccccc21` (stereo not drawn): the melting point was in the range of 219 to 220 °C.
Consider `CN=C(NS(=O)(=O)N1CCC(F)(F)CC1)N1CC(c2ccccc2)C(c2ccc(Cl)cc2)=N1` (stereo not drawn), for which the melting point was in the range of 158 to 160 °C.
Regarding `Nc1ccc(Cn2ncc3ccccc32)cc1`, the melting point is 110 to 111 °C.
Regarding `CC(=O)c1ccc(NC(=O)NCCN(CCNC(=O)Nc2ccc(C(C)=O)cc2)CCNC(=O)Nc2ccc(C(C)=O)cc2)cc1`, the melting point lay in the range of 189 to 190 °C.
The compound `CCOC(=O)C=Cc1ccc(OCc2ccccc2)c(OC)c1` returned a melting point of 74.5 to 75 °C.
`CCN1C=C(C(=O)O)C(=O)CC1c1ccc(OC)c(OC)c1` (stereo not drawn): the melting point is 182 to 183 °C.
`CCOC(=O)CCCCC(=O)OCC1=C(C(=O)OCC)C(c2ccccc2Cl)C(C(=O)OCC)=C(C)N1` (stereo not drawn) gave a melting point of 91 to 92 °C.
The result for `Oc1cccc(C=Cc2nc(-c3ccccc3)c(-c3ccccc3)o2)c1` reads 201 to 203 °C; that for `CCCc1cnc(N2CCC(c3ccc(COc4ccc(C#N)c(F)c4)nc3)CC2)nc1`, 118 to 120 °C.
